Test results reported in patent US20230085307A1, “PYRIDAZINONE COMPOUND AND HERBICIDE” (NISSAN CHEMICAL CORPORATION, priority 2019, published 2023).

Assays:
velvetleaf = test: Test Example 4: herbicidal effect by soil treatment (Table 19, symbol M); type: in vivo, velvetleaf (Abutilon theophrasti); details: amount of applied herbicide 320 g/ha
Method in brief: (§1)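 Step 1: sow seeds in sterilized diluvial soil, cover ~1.5 cm. Step 2: spray diluted emulsion onto soil surface at predetermined rate. Step 3: greenhouse, 25–30° C, three weeks. Step 4: grade effect on each plant by earlier criteria.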

oval-leafed pondweed [1] = test: Test Example 2: herbicidal activity, application during weed generation under submerged conditions (Table 17, symbol C); type: in vivo, oval-leafed pondweed (Monochoria vaginalis); details: AAH 320 g/ha; application during weed generation, submerged conditions
Method in brief: (§2)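 3-wk visual-criteria score after one water-surface dose. Emulsion formulation, water-diluted to set rate; applied at 1–2 leaf stage; alluvial soil, 4 cm standing water; seeds co-sown; greenhouse 25–30° C.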

windgrass [2] = test: Test Example 4: herbicidal effect by soil treatment (Table 19, symbol L); type: in vivo, windgrass (Apera spica-venti); details: amount of applied herbicide 320 g/ha
Method in brief: as §1

Japanese bulrush [3] = test: Test Example 2: herbicidal activity, application during weed generation under submerged conditions (Table 17, symbol B); type: in vivo, Japanese bulrush (Schoenoplectus juncoides); details: AAH 320 g/ha; application during weed generation, submerged conditions
Method in brief: as §2

oval-leafed pondweed [4] = test: Test Example 1: herbicidal activity, application before weed generation under submerged conditions (Table 16, symbol C); type: in vivo, oval-leafed pondweed (Monochoria vaginalis); details: 320 g/ha applied herbicide
Method in brief: (§3)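 Submerged Wagner pots (alluvial soil, 4 cm water) sown with weed seeds and planted with 2.5-leaf rice seedlings; emulsifiable concentrate diluted in water applied to water surface on sowing day. Held in greenhouse at 25-30 °C; injury scored 0-5 by herbicidal rate after three weeks.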

southern crabgrass = test: Test Example 5: herbicidal effect by foliage application, plastic box (Table 20, symbol F); type: in vivo, southern crabgrass (Digitaria ciliaris); details: foliage application, evaluated three weeks after application; for herbicidal effect on F: southern crabgrass (criteria 0-5): 320 g/ha; for F: southern crabgrass, herbicidal effect (criteria 0-5): AAH 320 g/ha
Method in brief: (§4)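 Foliar spray test: emulsion formulation diluted in water to a set application rate, sprayed onto 14-day-old plants raised in diluvial soil at 25° C to 30° C under glass. Both herbicidal effect and crop effect rated visually three weeks later.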

wild oat = test: Test Example 4: herbicidal effect by soil treatment (Table 19, symbol I); type: in vivo, wild oat (Avena fatua); details: amount of applied herbicide 320 g/ha
Method in brief: as §1

windgrass [5] = test: Test Example 5: herbicidal effect by foliage application, plastic box (Table 20, symbol L); type: in vivo, windgrass (Apera spica-venti); details: foliage application, evaluated three weeks after application; for herbicidal effect on L: windgrass (criteria 0-5): 320 g/ha; for L: windgrass, herbicidal effect (criteria 0-5): AAH 320 g/ha
Method in brief: as §4

persian speedwell = test: Test Example 4: herbicidal effect by soil treatment (Table 19, symbol R); type: in vivo, Persian speedwell (Veronica persica); details: amount of applied herbicide 320 g/ha
Method in brief: as §1

green foxtail [6] = test: Test Example 4: herbicidal effect by soil treatment (Table 19, symbol G); type: in vivo, green foxtail (Setaria viridis); details: amount of applied herbicide 320 g/ha
Method in brief: as §1

Japanese bulrush [7] = test: Test Example 1: herbicidal activity, application before weed generation under submerged conditions (Table 16, symbol B); type: in vivo, Japanese bulrush (Schoenoplectus juncoides); details: 320 g/ha applied herbicide
Method in brief: as §3

Italian ryegrass = test: Test Example 4: herbicidal effect by soil treatment (Table 19, symbol K); type: in vivo, Italian ryegrass (Lolium multiflorum); details: amount of applied herbicide 320 g/ha
Method in brief: as §1

lambsquarters = test: Test Example 5: herbicidal effect by foliage application, plastic box (Table 20, symbol O); type: in vivo, lambsquarters (Chenopodium album); details: foliage application, evaluated three weeks after application; for herbicidal effect on O: lambsquarters (criteria 0-5): 320 g/ha; for O: lambsquarters, herbicidal effect (criteria 0-5): AAH 320 g/ha
Method in brief: as §4

green foxtail [8] = test: Test Example 5: herbicidal effect by foliage application, plastic box (Table 20, symbol G); type: in vivo, green foxtail (Setaria viridis); details: foliage application, evaluated three weeks after application; for herbicidal effect on G: green foxtail (criteria 0-5): 320 g/ha; for G: green foxtail, herbicidal effect (criteria 0-5): AAH 320 g/ha
Method in brief: as §4

rice flat sedge = test: Test Example 3: herbicidal effect by foliage application, Wagner pot (Table 18, symbol E); type: in vivo, rice flat sedge (Cyperus iria); details: amount of applied herbicide 320 g/ha
Method in brief: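 Plants were sown in alluvial soil held under 0.1–0.5 cm standing water and grown 14 days in a greenhouse at 25–30 °C. An emulsifiable formulation, water-diluted to the set dose, was then sprayed onto the foliage, and effects were scored three weeks later using previously defined criteria.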

chickweed = test: Test Example 5: herbicidal effect by foliage application, plastic box (Table 20, symbol P); type: in vivo, common chickweed (Stellaria media); details: foliage application, evaluated three weeks after application; for herbicidal effect on P: chickweed (criteria 0-5): 320 g/ha; for P: chickweed, herbicidal effect (criteria 0-5): AAH 320 g/ha
Method in brief: as §4

## Cc1nn(C)c(=O)c(-c2c(-c3cccc(OC(C)(C)C)c3)sc3ccc(F)cc23)c1O [2-223]
velvetleaf
  herbicidal effect on M: velvetleaf: 1 (Herbicidal rate of 5% or more and less than 20%)
oval-leafed pondweed [1]
  herbicidal effect rating, C: oval-leafed pondweed: 0 (Herbicidal rate of 5% or less (almost no effect))
Windgrass [2]
  herbicidal effect on L: windgrass: 0 (Herbicidal rate of 5% or less (almost no effect))
Japanese bulrush [3]
  herbicidal effect rating, B: Japanese bulrush: 2 (Herbicidal rate of 20% or more and less than 40%)
oval-leafed pondweed [4]
  Herbicidal effect on C: oval-leafed pondweed (grade 0-5): 2 (Herbicidal rate of 20% or more and less than 40%)
Southern crabgrass
  herbicidal effect on F: southern crabgrass (criteria 0-5): 3 (Herbicidal rate of 40% or more and less than 70%)
Wild oat
  herbicidal effect on I: wild oat: 0 (Herbicidal rate of 5% or less (almost no effect))
Windgrass [5]
  herbicidal effect on L: windgrass (criteria 0-5): 5 (Herbicidal rate of 90% or more (almost completely withered))
Persian speedwell
  herbicidal effect on R: persian speedwell: 4 (Herbicidal rate of 70% or more and less than 90%)
Green foxtail [6]
  herbicidal effect on G: green foxtail: 3 (Herbicidal rate of 40% or more and less than 70%)
Japanese bulrush [7]
  Herbicidal effect on B: Japanese bulrush (grade 0-5): 4 (Herbicidal rate of 70% or more and less than 90%)
Italian ryegrass
  herbicidal effect on K: Italian ryegrass: 0 (Herbicidal rate of 5% or less (almost no effect))
lambsquarters
  herbicidal effect on O: lambsquarters (criteria 0-5): 4 (Herbicidal rate of 70% or more and less than 90%)
Green foxtail [8]
  herbicidal effect on G: green foxtail (criteria 0-5): 1 (Herbicidal rate of 5% or more and less than 20%)
Rice flat sedge
  herbicidal effect on E: rice flat sedge: 4 (Herbicidal rate of 70% or more and less than 90%)
chickweed
  herbicidal effect on P: chickweed (criteria 0-5): 5 (Herbicidal rate of 90% or more (almost completely withered))

## CCCC(=O)Oc1c(C)nn(C)c(=O)c1-c1c(-c2ccc(C(F)F)cc2)sc2ccc(F)cc12 [2-228]
velvetleaf
  herbicidal effect on M: velvetleaf: 3 (Herbicidal rate of 40% or more and less than 70%)
oval-leafed pondweed [1]
  herbicidal effect rating, C: oval-leafed pondweed: 3 (Herbicidal rate of 40% or more and less than 70%)
Windgrass [2]
  herbicidal effect on L: windgrass: 0 (Herbicidal rate of 5% or less (almost no effect))
Japanese bulrush [3]
  herbicidal effect rating, B: Japanese bulrush: 3 (Herbicidal rate of 40% or more and less than 70%)
oval-leafed pondweed [4]
  Herbicidal effect on C: oval-leafed pondweed (grade 0-5): 4 (Herbicidal rate of 70% or more and less than 90%)
Southern crabgrass
  herbicidal effect on F: southern crabgrass (criteria 0-5): 4 (Herbicidal rate of 70% or more and less than 90%)
Wild oat
  herbicidal effect on I: wild oat: 0 (Herbicidal rate of 5% or less (almost no effect))
Windgrass [5]
  herbicidal effect on L: windgrass (criteria 0-5): 0 (Herbicidal rate of 5% or less (almost no effect))
Persian speedwell
  herbicidal effect on R: persian speedwell: 5 (Herbicidal rate of 90% or more (almost completely withered))
Green foxtail [6]
  herbicidal effect on G: green foxtail: 4 (Herbicidal rate of 70% or more and less than 90%)
Japanese bulrush [7]
  Herbicidal effect on B: Japanese bulrush (grade 0-5): 4 (Herbicidal rate of 70% or more and less than 90%)
Italian ryegrass
  herbicidal effect on K: Italian ryegrass: 0 (Herbicidal rate of 5% or less (almost no effect))
lambsquarters
  herbicidal effect on O: lambsquarters (criteria 0-5): 5 (Herbicidal rate of 90% or more (almost completely withered))
Green foxtail [8]
  herbicidal effect on G: green foxtail (criteria 0-5): 5 (Herbicidal rate of 90% or more (almost completely withered))
Rice flat sedge
  herbicidal effect on E: rice flat sedge: 5 (Herbicidal rate of 90% or more (almost completely withered))
chickweed
  herbicidal effect on P: chickweed (criteria 0-5): 5 (Herbicidal rate of 90% or more (almost completely withered))

## CCSc1ccc(-c2sc3ccc(F)cc3c2-c2c(O)c(C)nn(C)c2=O)cc1 [2-244]
velvetleaf
  herbicidal effect on M: velvetleaf: 2 (Herbicidal rate of 20% or more and less than 40%)
oval-leafed pondweed [1]
  herbicidal effect rating, C: oval-leafed pondweed: 4 (Herbicidal rate of 70% or more and less than 90%)
Windgrass [2]
  herbicidal effect on L: windgrass: 3 (Herbicidal rate of 40% or more and less than 70%)
Japanese bulrush [3]
  herbicidal effect rating, B: Japanese bulrush: 3 (Herbicidal rate of 40% or more and less than 70%)
oval-leafed pondweed [4]
  Herbicidal effect on C: oval-leafed pondweed (grade 0-5): 0 (Herbicidal rate of 5% or less (almost no effect))
Southern crabgrass
  herbicidal effect on F: southern crabgrass (criteria 0-5): 5 (Herbicidal rate of 90% or more (almost completely withered))
Wild oat
  herbicidal effect on I: wild oat: 0 (Herbicidal rate of 5% or less (almost no effect))
Windgrass [5]
  herbicidal effect on L: windgrass (criteria 0-5): 5 (Herbicidal rate of 90% or more (almost completely withered))
Persian speedwell
  herbicidal effect on R: persian speedwell: 5 (Herbicidal rate of 90% or more (almost completely withered))
Green foxtail [6]
  herbicidal effect on G: green foxtail: 5 (Herbicidal rate of 90% or more (almost completely withered))
Japanese bulrush [7]
  Herbicidal effect on B: Japanese bulrush (grade 0-5): 0 (Herbicidal rate of 5% or less (almost no effect))
Italian ryegrass
  herbicidal effect on K: Italian ryegrass: 4 (Herbicidal rate of 70% or more and less than 90%)
lambsquarters
  herbicidal effect on O: lambsquarters (criteria 0-5): 5 (Herbicidal rate of 90% or more (almost completely withered))
Green foxtail [8]
  herbicidal effect on G: green foxtail (criteria 0-5): 5 (Herbicidal rate of 90% or more (almost completely withered))
Rice flat sedge
  herbicidal effect on E: rice flat sedge: 5 (Herbicidal rate of 90% or more (almost completely withered))
chickweed
  herbicidal effect on P: chickweed (criteria 0-5): 5 (Herbicidal rate of 90% or more (almost completely withered))

## Cc1nn(C)c(=O)c(-c2c(-c3ccc(SC4CC4)cc3)sc3ccc(F)cc23)c1O [2-254]
velvetleaf
  herbicidal effect on M: velvetleaf: 2 (Herbicidal rate of 20% or more and less than 40%)
oval-leafed pondweed [1]
  herbicidal effect rating, C: oval-leafed pondweed: 0 (Herbicidal rate of 5% or less (almost no effect))
Windgrass [2]
  herbicidal effect on L: windgrass: 3 (Herbicidal rate of 40% or more and less than 70%)
Japanese bulrush [3]
  herbicidal effect rating, B: Japanese bulrush: 0 (Herbicidal rate of 5% or less (almost no effect))
oval-leafed pondweed [4]
  Herbicidal effect on C: oval-leafed pondweed (grade 0-5): 1 (Herbicidal rate of 5% or more and less than 20%)
Southern crabgrass
  F: southern crabgrass, herbicidal effect (criteria 0-5): 5 (Herbicidal rate of 90% or more (almost completely withered))
Wild oat
  herbicidal effect on I: wild oat: 1 (Herbicidal rate of 5% or more and less than 20%)
Windgrass [5]
  L: windgrass, herbicidal effect (criteria 0-5): 5 (Herbicidal rate of 90% or more (almost completely withered))
Persian speedwell
  herbicidal effect on R: persian speedwell: 5 (Herbicidal rate of 90% or more (almost completely withered))
Green foxtail [6]
  herbicidal effect on G: green foxtail: 5 (Herbicidal rate of 90% or more (almost completely withered))
Japanese bulrush [7]
  Herbicidal effect on B: Japanese bulrush (grade 0-5): 3 (Herbicidal rate of 40% or more and less than 70%)
Italian ryegrass
  herbicidal effect on K: Italian ryegrass: 5 (Herbicidal rate of 90% or more (almost completely withered))
lambsquarters
  O: lambsquarters, herbicidal effect (criteria 0-5): 5 (Herbicidal rate of 90% or more (almost completely withered))
Green foxtail [8]
  G: green foxtail, herbicidal effect (criteria 0-5): 5 (Herbicidal rate of 90% or more (almost completely withered))
Rice flat sedge
  herbicidal effect on E: rice flat sedge: 5 (Herbicidal rate of 90% or more (almost completely withered))
chickweed
  P: chickweed, herbicidal effect (criteria 0-5): 5 (Herbicidal rate of 90% or more (almost completely withered))

## Cc1nn(C)c(=O)c(-c2c(-c3ccc([S+]([O-])C(C)C)cc3)sc3ccc(F)cc23)c1O (centres unmarked) [2-257]
velvetleaf
  herbicidal effect on M: velvetleaf: 3 (Herbicidal rate of 40% or more and less than 70%)
oval-leafed pondweed [1]
  herbicidal effect rating, C: oval-leafed pondweed: 0 (Herbicidal rate of 5% or less (almost no effect))
Windgrass [2]
  herbicidal effect on L: windgrass: 0 (Herbicidal rate of 5% or less (almost no effect))
Japanese bulrush [3]
  herbicidal effect rating, B: Japanese bulrush: 0 (Herbicidal rate of 5% or less (almost no effect))
oval-leafed pondweed [4]
  Herbicidal effect on C: oval-leafed pondweed (grade 0-5): 2 (Herbicidal rate of 20% or more and less than 40%)
Southern crabgrass
  F: southern crabgrass, herbicidal effect (criteria 0-5): 3 (Herbicidal rate of 40% or more and less than 70%)
Wild oat
  herbicidal effect on I: wild oat: 0 (Herbicidal rate of 5% or less (almost no effect))
Windgrass [5]
  L: windgrass, herbicidal effect (criteria 0-5): 5 (Herbicidal rate of 90% or more (almost completely withered))
Persian speedwell
  herbicidal effect on R: persian speedwell: 5 (Herbicidal rate of 90% or more (almost completely withered))
Green foxtail [6]
  herbicidal effect on G: green foxtail: 2 (Herbicidal rate of 20% or more and less than 40%)
Japanese bulrush [7]
  Herbicidal effect on B: Japanese bulrush (grade 0-5): 0 (Herbicidal rate of 5% or less (almost no effect))
Italian ryegrass
  herbicidal effect on K: Italian ryegrass: 3 (Herbicidal rate of 40% or more and less than 70%)
lambsquarters
  O: lambsquarters, herbicidal effect (criteria 0-5): 5 (Herbicidal rate of 90% or more (almost completely withered))
Green foxtail [8]
  G: green foxtail, herbicidal effect (criteria 0-5): 4 (Herbicidal rate of 70% or more and less than 90%)
Rice flat sedge
  herbicidal effect on E: rice flat sedge: 5 (Herbicidal rate of 90% or more (almost completely withered))
chickweed
  P: chickweed, herbicidal effect (criteria 0-5): 5 (Herbicidal rate of 90% or more (almost completely withered))
